Experimental data taken from patent US8389526B2, “3-heteroarylmethyl-imidazo[1,2-b]pyridazin-6-yl derivatives” (Novartis AG, priority 2009, dated 2013).

Experiments:
[1] = target: T1, c-Met receptor tyrosine kinase, GST-c-Met(969-1390) (Homo sapiens, UniProt P08581); assay: EPK c-Met profiling assay (LanthaScreen TR-FRET kinase assay); type: biochemical; conditions: 2 μM ATP, 0.3 nM enzyme, 60 minutes at room temperature
T1 construct: made in house
Summary of the method: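 Recombinant GST-c-Met(969-1390) cytoplasmic domain, 0.3 nM, phosphorylating 50 nM Fluorescein-PolyEAY with 2 μM ATP, 10 mM MgCl2, 3 mM MnCl2, 60 min at room temperature. EDTA-stopped; phosphoproduct detected by TR-FRET with Tb-PY20 antibody, end-point read. Final compound 0.003-10 μM over 8 concentrations.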

[2] = system: MET-amplified gastric cancer cell line GTL-16; assay: GTL-16 proliferation assay (MTS); type: cell-based; conditions: Homo sapiens, GTL-16 cells, 72 h incubation
Summary of the method: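 GTL-16 cells were seeded at 3000/well in DMEM with 10% FCS. After 24 h they were treated in triplicate with a 10-point, 3-fold dilution series ([…]; DMSO-only control) for 72 h. Viable cells were measured by MTS, with OD 490 nm read after 30 min.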

T1 sequence (P08581 969-1390): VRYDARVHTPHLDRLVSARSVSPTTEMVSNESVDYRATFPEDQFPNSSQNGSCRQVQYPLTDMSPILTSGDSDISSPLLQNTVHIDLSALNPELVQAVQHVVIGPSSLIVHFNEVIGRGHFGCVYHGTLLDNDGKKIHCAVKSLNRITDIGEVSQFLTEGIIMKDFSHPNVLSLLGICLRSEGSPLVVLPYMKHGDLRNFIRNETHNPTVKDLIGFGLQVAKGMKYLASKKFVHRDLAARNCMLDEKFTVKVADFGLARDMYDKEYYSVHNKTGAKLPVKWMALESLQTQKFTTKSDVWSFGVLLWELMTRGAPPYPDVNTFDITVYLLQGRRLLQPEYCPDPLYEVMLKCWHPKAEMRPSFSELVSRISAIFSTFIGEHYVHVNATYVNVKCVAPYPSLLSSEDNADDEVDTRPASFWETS

SMILES	IC50 [1] [nM]	IC50 [2] [nM]
C[C@@H](c1c(F)cc2ncccc2c1F)c1cnc2ccc(N3CCNC(=O)C3)nn12 (single isomer, unassigned) [Example 5]	< 3	3.6
C[C@@H](c1c(F)cc2ncccc2c1F)c1cnc2ccc(N3CCN(C)C(=O)C3)nn12 [Example 2, 4-{3-[(S)-1-(5,7-Difluoro-quinolin-6-yl)-ethyl]-imidazo[1,2-b]pyridazin-6-yl}-1-methyl-piperazin-2-one]	< 3	1.7
C[C@@H](c1c(F)cc2ncccc2c1F)c1cnc2ccc(N3CCNCC3)nn12 [Example 7, 5,7-Difluoro-6-[(S)-1-(6-piperazin-1-yl-imidazo[1,2-b]pyridazin-3-yl)-ethyl]-quinoline]	4.1	6.4
CC(=O)N1CCN(c2ccc3ncc([C@@H](C)c4c(F)cc5ncccc5c4F)n3n2)CC1 [Example 11, 1-(4-{3-[(S)-1-(5,7-Difluoro-quinolin-6-yl)-ethyl]-imidazo[1,2-b]pyridazin-6-yl}-piperazin-1-yl)ethanone]	3.6	7.2
C[C@@H](c1cc2cnn(C)c2cc1F)c1cnc2ccc(N3CCNC(=O)C3)nn12 [Example 28, 4-{3-[(S)-1-(6-Fluoro-1-methyl-1H-indazol-5-yl)-ethyl]-imidazo[1,2-b]pyridazin-6-yl}-piperazin-2-one]	17	26
